Experimental findings from US12686687B2, “Compounds and uses thereof” (Foghorn Therapeutics Inc., priority 2019, dated 2026) are described below.

Each structure is given as a SMILES string.

This assay has as its target T1, Nanoluciferase-BRD9 fusion protein (3×FLAG-NLuc-BRD9) in SYO-1 cells (Homo sapiens, UniProt Q9H8M2).
T1 construct: expressed in transfected cells; host or cells: SYO-1
T1 sequence (Q9H8M2 1-597): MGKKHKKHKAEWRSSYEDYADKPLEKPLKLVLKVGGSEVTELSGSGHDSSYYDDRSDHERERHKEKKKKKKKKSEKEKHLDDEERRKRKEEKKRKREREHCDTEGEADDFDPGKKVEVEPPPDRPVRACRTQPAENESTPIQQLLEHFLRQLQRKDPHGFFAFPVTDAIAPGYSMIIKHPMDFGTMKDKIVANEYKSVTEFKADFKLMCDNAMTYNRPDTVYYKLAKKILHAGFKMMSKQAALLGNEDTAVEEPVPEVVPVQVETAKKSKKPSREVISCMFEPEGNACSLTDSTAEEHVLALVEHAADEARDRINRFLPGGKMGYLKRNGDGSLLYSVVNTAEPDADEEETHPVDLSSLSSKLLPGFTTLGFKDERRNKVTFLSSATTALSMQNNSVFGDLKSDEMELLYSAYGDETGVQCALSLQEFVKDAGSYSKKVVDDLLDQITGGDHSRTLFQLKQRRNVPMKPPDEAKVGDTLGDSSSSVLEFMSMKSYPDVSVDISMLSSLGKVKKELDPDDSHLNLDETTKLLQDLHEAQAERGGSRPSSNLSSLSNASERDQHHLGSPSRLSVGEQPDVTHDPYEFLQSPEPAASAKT
Briefly: SYO1 BRD9 NanoLuc degradation assay. The assay is classed as cell-based. Particulars: Table 6B; SYO-1 cells expressing 3×FLAG-NLuc-BRD9, 6 hours incubation, 1 μM top dose; read-out: SYO1 BRD9-NanoLuc degradation IC50. How it is done:
Procedure: A stable SYO-1 cell line expressing 3×FLAG-NLuc-BRD9 was generated. On day 0 cells were seeded in 30 μL media into each well of 384-well cell culture plates. The seeding density was 8000 cells/well. On day 1, cells were treated with 30 nL DMSO or 30 nL of 3-fold serially DMSO-diluted compounds (10 points in duplicates with 1 μM as final top dose). Subsequently plates were incubated for 6 hours in a standard tissue culture incubator and equilibrated at room temperature for 15 minutes. Nanoluciferase activity was measured by adding 15 μL of freshly prepared Nano-Glo Luciferase Assay Reagent (Promega N1130), shaking the plates for 10 minutes and reading the bioluminescence using an EnVision reader. • Results: The Inhibition % was calculated using the following formula: % Inhibition=100×(LumHC−LumSample)/(LumHC−LumLC). DMSO treated cells are employed as High Control (HC) and 1 μM of a known BRD9 degrader standard treated cells are employed as Low Control (LC).
As for `COc1cc(-c2cn(C)c(=O)c3cc(C(=O)NC4CCN(CCCCCOc5cccc6c5C(=O)N(C5CCC(=O)NC5=O)C6=O)CC4(F)F)sc23)cc(OC)c1CN(C)C` (stereo not drawn) [Compound D16], the DC50 was < 10 nM.
With `COc1cc(-c2cn(C)c(=O)c3cc(C(=O)NC4CCN(CCN5CCN(c6ccc7c(c6)CN(C6CCC(=O)NC6=O)C7=O)CC5)CC4(F)F)sc23)cc(Cl)c1CN(C)C` (stereo not drawn) [Compound D17] the figure was < 10 nM.
With `COc1cc(-c2cn(C)c(=O)c3cc(C(=O)NC4CCN(C(=O)CN5CCC6(CC5)CN(c5ccc7c(c5)CN(C5CCC(=O)NC5=O)C7=O)C6)CC4(F)F)sc23)cc(OC)c1CN(C)C` (stereo not drawn) [Compound D18] the figure was < 10 nM; with `COc1cc(-c2cn(C)c(=O)c3cc(C(=O)NC4CCN(CCN5CCC6(CC5)CN(c5ccc7c(c5)CN(C5CCC(=O)NC5=O)C7=O)C6)CC4(F)F)sc23)cc(OC)c1CN(C)C` (stereo not drawn) [Compound D19], < 10 nM; with `COc1cc(-c2cn(C)c(=O)c3scnc23)cc(OC)c1CN1CC(CN2CCC3(CC2)CN(c2ccc4c(c2)C(=O)N(C2CCC(=O)NC2=O)C4)C3)C1` (stereo not drawn) [Compound D20], < 10 nM.
With `COc1cc(-c2cn(C)c(=O)c3occc23)cc(OC)c1CN1CC(CN2CCC3(CC2)CN(c2ccc4c(c2)C(=O)N(C2CCC(=O)NC2=O)C4)C3)C1` (stereo not drawn) [Compound D21] the figure was < 10 nM; with `COc1cc(-c2cn(C)c(=O)c3cc(C(=O)NC4CCN(C)CC4(F)F)sc23)cc(OC)c1CN1CCN(c2ccc3c(c2)CN(C2CCC(=O)NC2=O)C3=O)CC1` (stereo not drawn) [Compound D22], < 10 nM.
Regarding `COc1cc(-c2cn(C)c(=O)c3cc(C(=O)NC4CCN(C5CCN(c6ccc7c(c6)C(=O)N(C6CCC(=O)NC6=O)C7)CC5)CC4(F)F)sc23)cc(OC)c1CN(C)C` (stereo not drawn) [Compound D24], the DC50 was < 10 nM.
With `COc1cc(-c2cn(C)c(=O)c3cc(C(=O)NC4CCN(C5CCN(c6ccc7c(c6)CN(C6CCC(=O)NC6=O)C7=O)CC5)CC4(F)F)sc23)cc(OC)c1CN(C)C` (stereo not drawn) [Compound D25] the figure was < 10 nM; with `COc1cc(-c2cn(C)c(=O)c3cc(C(=O)NC4CCN(C)CC4(F)F)sc23)cc(OC)c1CN1CCC(CCN2CCN(c3ccc4c(c3)C(=O)N(C3CCC(=O)NC3=O)C4=O)CC2)CC1` (stereo not drawn) [Compound D26], < 10 nM; with `COc1cc(-c2cn(C)c(=O)c3cc(C(=O)NC4CCN(C(C)=O)CC4)sc23)cc(OC)c1CN1CCC(CCN2CCN(c3ccc4c(c3)C(=O)N(C3CCC(=O)NC3=O)C4=O)CC2)CC1` (stereo not drawn) [Compound D27], < 10 nM.
With `COc1cc(-c2cn(C)c(=O)c3cc(C(=O)NC4CCN(CCCCCOc5ccc6c(c5)C(=O)N(C5CCC(=O)NC5=O)C6=O)CC4(F)F)sc23)cc(OC)c1CN1CCC1` (stereo not drawn) [Compound D28] the figure was < 10 nM.
With `COc1cc(-c2cn(C)c(=O)c3cc(C(=O)NC4CCN(C(=O)CCCCOc5cccc6c5C(=O)N(C5CCC(=O)NC5=O)C6=O)CC4)sc23)cc(OC)c1CN1CCC1` (stereo not drawn) [Compound D29] the figure was < 10 nM.
On to `COc1cc(-c2cn(C)c(=O)c3cc(C(=O)NC4CCN(C)CC4(F)F)sc23)cc(OC)c1CN(C)CC(=O)NCCOCCOc1cccc2c1C(=O)N(C1CCC(=O)NC1=O)C2=O` (stereo not drawn) [Compound D30], for which the DC50 is > 10 nM.
With `Cn1cc(-c2cccc(C(F)(F)F)c2)c2sc(C(=N)NC3CCS(=O)(=O)N(CC(=O)NCCCCCCCCNc4cccc5c4C(=O)N(C4CCC(=O)NC4=O)C5=O)C3)cc2c1=O` (stereo not drawn) [Compound D31] the figure was > 10 nM; with `COc1cc(-c2cn(C)c(=O)c3cc(C(=O)NC4CCN(C)CC4)sc23)cc(OC)c1CN(C)CC(=O)NCCOCCOc1cccc2c1C(=O)N(C1CCC(=O)NC1=O)C2=O` (stereo not drawn) [Compound D32], > 100 nM.
The same measure for `COc1cc(-c2cn(C)c(=O)c3cc(C(=O)NCC4CC5(CCN(CCCN6CCN(c7ccc8c(c7)C(=O)N(C7CCC(=O)NC7=O)C8=O)CC6)CC5)C4)sc23)cc(OC)c1CN(C)C` (stereo not drawn) [Compound D33]: < 10 nM.
With `COc1cc(-c2cn(C)c(=O)c3cc(C(=O)NCC4CC5CN(C(=O)CCN6CCN(c7ccc8c(c7)C(=O)N(C7CCC(=O)NC7=O)C8=O)CC6)CC5C4)sc23)cc(OC)c1CN(C)C` (stereo not drawn) [Compound D34] the figure was > 100 nM.
Turning to `COc1cc(-c2cn(C)c(=O)c3cc(C(=O)NCC4CC5(CCN(C(=O)CCN6CCN(c7ccc8c(c7)C(=O)N(C7CCC(=O)NC7=O)C8=O)CC6)CC5)C4)sc23)cc(OC)c1CN(C)C` (stereo not drawn) [Compound D35], the DC50 was < 10 nM.
The same measure for `COc1cc(-c2cn(C)c(=O)c3cc(C(=O)NCC4CC5(CCN(CCN6CCN(c7ccc8c(c7)C(=O)N(C7CCC(=O)NC7=O)C8=O)CC6)CC5)C4)sc23)cc(OC)c1CN(C)C` (stereo not drawn) [Compound D36]: < 10 nM.
The same measure for `COc1cc(-c2cn(C)c(=O)c3cc(C(=O)NC4CCC5CN(CCCN6CCN(c7ccc8c(c7)C(=O)N(C7CCC(=O)NC7=O)C8=O)CC6)CC54)sc23)cc(OC)c1CN(C)C` (stereo not drawn) [Compound D37]: < 10 nM; for `COc1cc(-c2cn(C)c(=O)c3cc(C(=O)NC4CCC5CN(CCN6CCN(c7ccc8c(c7)C(=O)N(C7CCC(=O)NC7=O)C8=O)CC6)CC54)sc23)cc(OC)c1CN(C)C` (stereo not drawn) [Compound D38]: < 10 nM.
With `COc1cc(-c2cn(C)c(=O)c3cc(C(=O)NC4CCC5(CCN(CCN6CCN(c7ccc8c(c7)C(=O)N(C7CCC(=O)NC7=O)C8=O)CC6)C5)C4)sc23)cc(OC)c1CN(C)C` (stereo not drawn) [Compound D39] the figure was < 10 nM; with `COc1cc(-c2cn(C)c(=O)c3cc(C(=O)NC4CC5(CCN(C(=O)CCN6CCN(c7ccc8c(c7)C(=O)N(C7CCC(=O)NC7=O)C8=O)CC6)CC5)C4)sc23)cc(OC)c1CN(C)C` (stereo not drawn) [Compound D40], < 10 nM.
For `COc1cc(-c2cn(C)c(=O)c3cc(C(=O)NC4CC5(CCN(CCN6CCN(c7ccc8c(c7)C(=O)N(C7CCC(=O)NC7=O)C8=O)CC6)CC5)C4)sc23)cc(OC)c1CN(C)C` (stereo not drawn) [Compound D41], the DC50 was < 10 nM.
The same measure for `COc1cc(-c2cn(C)c(=O)c3cc(C(=O)NCC4CC5CN(CCCN6CCN(c7ccc8c(c7)C(=O)N(C7CCC(=O)NC7=O)C8=O)CC6)CC5C4)sc23)cc(OC)c1CN(C)C` (stereo not drawn) [Compound D42]: < 10 nM.
Consider `COc1cc(-c2cn(C)c(=O)c3cc(C(=O)NCC4CC5CN(CCN6CCN(c7ccc8c(c7)C(=O)N(C7CCC(=O)NC7=O)C8=O)CC6)CC5C4)sc23)cc(OC)c1CN(C)C` (stereo not drawn) [Compound D43], for which the DC50 was < 10 nM.
With `COc1cc(-c2cn(C)c(=O)c3cc(C(=O)NC4CCN(C(=O)CN5CCC6(C5)CN(c5ccc7c(c5)C(=O)N(C5CCC(=O)NC5=O)C7=O)C6)CC4(F)F)sc23)cc(OC)c1CN(C)C` (stereo not drawn) [Compound D45] the figure was > 1000 nM.
With `COc1cc(-c2cn(C)c(=O)c3cc(C(=O)NC4CCN(C(=O)CN5CCC6(CC5)CN(c5ccc7c(c5)C(=O)N(C5CCC(=O)NC5=O)C7=O)C6)CC4(F)F)sc23)cc(OC)c1CN(C)C` (stereo not drawn) [Compound D46] the figure was < 10 nM.
In the case of `COc1cc(-c2cn(C)c(=O)c3cc(C(=O)NC4CCC5(CCN(C(=O)CCN6CCN(c7ccc8c(c7)C(=O)N(C7CCC(=O)NC7=O)C8=O)CC6)C5)C4)sc23)cc(OC)c1CN(C)C` (stereo not drawn) [Compound D47], the DC50 was > 10 nM.
With `COc1cc(-c2cn(C)c(=O)c3cc(C(=O)NCC4CC5(CCN(C(=O)CCN6CCN(c7ccc8c(c7)C(=O)N(C7CCC(=O)NC7=O)C8=O)CC6)CC5)CO4)sc23)cc(OC)c1CN(C)C` (stereo not drawn) [Compound D48] the figure was > 10 nM; with `COc1cc(-c2cn(C)c(=O)c3cc(C(=O)NCC4CC5(CCN(CCCN6CCN(c7ccc8c(c7)C(=O)N(C7CCC(=O)NC7=O)C8=O)CC6)CC5)CO4)sc23)cc(OC)c1CN(C)C` (stereo not drawn) [Compound D49], < 10 nM; with `COc1cc(-c2cn(C)c(=O)c3cc(C(=O)NCC4CC5(CCN(CCN6CCN(c7ccc8c(c7)C(=O)N(C7CCC(=O)NC7=O)C8=O)CC6)CC5)CO4)sc23)cc(OC)c1CN(C)C` (stereo not drawn) [Compound D50], < 10 nM.
`COc1cc(-c2cn(C)c(=O)c3cc(C(=O)NCC4CC5(C4)CN(C(=O)CCN4CCN(c6ccc7c(c6)C(=O)N(C6CCC(=O)NC6=O)C7=O)CC4)C5)sc23)cc(OC)c1CN(C)C` (stereo not drawn) [Compound D51]: the DC50 was > 10 nM.
With `COc1cc(-c2cn(C)c(=O)c3cc(C(=O)NCC4CC5(C4)CN(CCCN4CCN(c6ccc7c(c6)C(=O)N(C6CCC(=O)NC6=O)C7=O)CC4)C5)sc23)cc(OC)c1CN(C)C` (stereo not drawn) [Compound D52] the figure was > 10 nM; with `COc1cc(-c2cn(C)c(=O)c3cc(C(=O)NCC4CC5(C4)CN(CCN4CCN(c6ccc7c(c6)C(=O)N(C6CCC(=O)NC6=O)C7=O)CC4)C5)sc23)cc(OC)c1CN(C)C` (stereo not drawn) [Compound D53], > 10 nM.
